Here are results for eleven compounds from US20260083735A1, “ABHD6 ANTAGONIST” (ONO PHARMACEUTICAL CO., LTD., priority 2022, published 2026).

One assay deals with T1, human ABHD6 (Homo sapiens, UniProt Q9BV23).
T1 construct: expressed in transfected cells; host or cells: HEK293
T1 sequence (Q9BV23 1-337): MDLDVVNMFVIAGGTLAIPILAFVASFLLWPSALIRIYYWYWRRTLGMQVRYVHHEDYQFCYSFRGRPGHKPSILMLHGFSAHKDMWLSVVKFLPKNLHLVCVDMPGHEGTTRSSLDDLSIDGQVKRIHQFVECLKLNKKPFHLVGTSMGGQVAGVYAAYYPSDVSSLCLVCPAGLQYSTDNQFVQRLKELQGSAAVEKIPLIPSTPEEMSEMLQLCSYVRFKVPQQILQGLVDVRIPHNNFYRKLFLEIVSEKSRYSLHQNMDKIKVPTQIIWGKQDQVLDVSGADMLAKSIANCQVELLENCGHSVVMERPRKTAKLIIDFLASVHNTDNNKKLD
In words: Measurement of binding affinity for human ABHD6 (BRET, HEK293 cells expressing NanoLuc-human ABHD6 fusion protein). Conditions: fluorescent probe 100 nmol/L. The method, then: The binding affinity of the test compound for human ABHD6 was measured using bioluminescence resonance energy transfer (hereinafter, abbreviated as BRET) as an index. The bioluminescence resonance energy transfer is induced by the proximity of a probe molecule and a NanoLuc-human ABHD6 fusion protein, which is caused by allowing a fluorescent probe molecule and a test compound to act in a competitive manner using HEK293 cells forcibly expressing the NanoLuc-human ABHD6 fusion protein.
The test compound and the compound described in Example 2 as a control substance were each dissolved in dimethyl sulfoxide (DMSO) to prepare a 10 mmol/L solution. The prepared 10 mmol/L solution was thawed at the time of use, serially diluted with DMSO, and subjected to an experiment.
HEK293 cells expressing a NanoLuc-human ABHD6 fusion protein were statically cultured at 37° C. in the presence of 5% CO2 using inactivated (56° C., 30 min) 9.8 vol % non-dialyzed-FBS (containing 0.5 vol % GENETICIN and 1% penicillin-streptomycin). The subculture was performed by the following method.
The culture medium was removed, and the cells were washed once with phosphate buffered saline without Ca^2+ and Mg^2+. An appropriate amount of trypsin-EDTA was added, and the cells were incubated at room temperature. After the cells were detached, a culture medium in a volume 10-fold the volume of trypsin-EDTA (0.05%) was added to stop an enzyme reaction. The cells were collected in a centrifuge tube, and centrifuged at room temperature for 3 minutes at 120 g, and the supernatant was removed. The cells were suspended in an appropriate amount of culture medium and seeded in a culture flask.
HEK293 cells expressing a NanoLuc-human ABHD6 fusion protein were prepared, and then cryopreserved so as to be 5.0×10^6 cells/mL/vial in CELLBANKER2, and the cells were subjected to an experiment. HBSS (+) containing 20 mmol/L HEPES (pH 7.3) and 0.1% BSA was prepared and used as an assay buffer. The cells were thawed and suspended in the assay buffer to prepare a cell suspension of 2×10^5 cells/mL. […] The plate was allowed to stand at 37° C. for 30 minutes in the presence of 5% CO2. Then, a probe molecule (10 mmol/L in DMSO) having a fluorophore was diluted with the assay buffer so as to have a final concentration of 100 nmol/L, and added to the assay plate in an amount of 15 μL each. Further, this was allowed to stand at 37° C. for 30 minutes in the presence of 5% CO2. Then, a Nano-Glo (registered trademark) Vivazine (trademark) substrate (Promega Corporation) was diluted with the assay buffer according to the method described in the protocol, and added to the assay plate in an amount of 10 μL each, and this was allowed to stand at room temperature for 1 hour. Thereafter, the luminescence and fluorescence intensity were measured using a GloMax (registered trademark) discover system. The ratio between the emission intensity through the 450 nm bandpass filter and the fluorescence intensity through the 600 nm longpass filter was defined as the measured value of each sample. […] The measured value of the group not containing the compound was defined as 0% inhibition. The IC50 value of the test compound was determined from the measured value at each test compound concentration.

Assay [1] deals with T2, recombinant human ABHD6 (33-337) (Homo sapiens, UniProt Q9BV23).
T2 construct: recombinant human ABHD6 (33-337); GST; made in house; host or cells: E. coli
T2 sequence (Q9BV23 33-337): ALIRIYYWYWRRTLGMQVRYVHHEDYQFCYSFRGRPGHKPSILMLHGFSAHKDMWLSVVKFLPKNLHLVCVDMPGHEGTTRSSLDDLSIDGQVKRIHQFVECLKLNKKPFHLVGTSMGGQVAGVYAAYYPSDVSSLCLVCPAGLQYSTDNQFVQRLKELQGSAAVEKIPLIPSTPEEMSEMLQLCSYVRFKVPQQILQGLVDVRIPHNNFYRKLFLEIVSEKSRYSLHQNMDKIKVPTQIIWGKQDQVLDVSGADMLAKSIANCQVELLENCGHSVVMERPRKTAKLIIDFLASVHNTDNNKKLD
In words: Evaluation of ABHD6 enzyme inhibitory activity (arachidonic acid production from 1-arachidonoyl glycerol, RapidFire-MS). Conditions: recombinant human GST-tagged ABHD6 (33-337), substrate 1-arachidonoyl glycerol 10 μmol/L, 1 hour, room temperature. In kind it is biochemical. The method, then: The recombinant human ABHD6 (33-337) was a GST-tagged ABHD6, and one which was expressed in E. coli, then purified with a Glutathione-Sepharose 4B resin, and then concentrated was used. The enzyme reaction was carried out at room temperature using a 384-well microplate made of polypropylene, and wells to which no enzyme was added were designated as a blank group.
One hour after the start of the enzyme reaction, methanol containing, as an internal standard substance, arachidonic acid-d8 (Cayman Chemical) and 1% formic acid was added to stop enzymatic reaction. The upper part of the enzyme reaction plate was sealed with aluminum, and centrifugation was performed at 560 g for 5 minutes at room temperature. Then, arachidonic acid as an enzyme reaction product and arachidonic acid-d8 as the internal standard substance were quantified with RapidFire (registered trademark)-Mass Spectrometry system.

For `O=C(c1cc2c(s1)CCOC2)N1C[C@@H]2CC[C@@H](Oc3ccc(Br)nn3)[C@]2(O)C1` [Example 7, [(3aR,4R,6aS)-4-[(6-Bromo-3-pyridazinyl)oxy]-3a-hydroxyhexahydrocyclopenta[c]pyrrol-2(1H)-yl](6,7-dihydro-4H-thieno[3,2-c]pyran-2-yl)methanone], the IC50 on human ABHD6 was 3 nM; in assay [1], 2 nM.

Consider `O=C(c1cc2c(s1)CCOC2)N1C[C@@H]2C[C@H](F)[C@@H](Oc3ccc(Br)nn3)[C@@H]2C1` [Example 9, [(3aS,4S,5S,6aR)-4-[(6-Bromo-3-pyridazinyl)oxy]-5-fluorohexahydrocyclopenta[c]pyrrol-2(1H)-yl](6,7-dihydro-4H-thieno[3,2-c]pyran-2-yl)methanone], for which the IC50 on human ABHD6 is 2 nM; in assay [1], under 1 nM.

As to `O=C(c1cc2nn(C3CC3)cc2s1)N1C[C@@H]2CC[C@@H](Oc3ccc(Br)nn3)[C@@H]2C1` [Example 1-4, [(3aS,4R,6aR)-4-[(6-Bromo-3-pyridazinyl)oxy]hexahydrocyclopenta[c]pyrrol-2(1H)-yl](2-cyclopropyl-2H-thieno[3,2-c]pyrazol-5-yl)methanone], the figures for the IC50 (on human ABHD6; in assay [1]) were 4 nM and under 1 nM, respectively.

As to `COc1cc(Cl)nnc1O[C@@H]1CC[C@H]2CN(C(=O)c3cc4c(s3)CCOC4)C[C@H]21` [Example 2-5, [(3aS,4R,6aR)-4-[(6-Chloro-4-methoxy-3-pyridazinyl)oxy]hexahydrocyclopenta[c]pyrrol-2(1H)-yl](6,7-dihydro-4H-thieno[3,2-c]pyran-2-yl)methanone], the IC50 was 9 nM at human ABHD6 and 2 nM in assay [1].

Take `O=C(c1cc2c(s1)CCOC2)N1CC2CCC(Oc3nnc(Cl)c4ccsc34)C2C1` (stereo not shown) [Example 2-3, {4-[(4-Chlorothieno[2,3-d]pyridazin-7-yl)oxy]hexahydrocyclopenta[c]pyrrol-2(1H)-yl}(6,7-dihydro-4H-thieno[3,2-c]pyran-2-yl)methanone]: the 50% inhibitory concentration (IC50) on human ABHD6 worked out at 9 nM; in assay [1], 1 nM.

Regarding `Cn1ncc2cc(C(=O)N3C[C@@H]4CC[C@@H](Oc5ccc(Br)nn5)[C@@H]4C3)sc21` [Example 1-10, [(3aS,4R,6aR)-4-[(6-Bromo-3-pyridazinyl)oxy]hexahydrocyclopenta[c]pyrrol-2(1H)-yl](1-methyl-1H-thieno[2,3-c]pyrazol-5-yl)methanone], the half-maximal inhibitory concentration (IC50) was 4 nM at human ABHD6 and under 1 nM in assay [1].

As for `O=C(c1ccc(OCCF)s1)N1C[C@@H]2CC[C@@H](Oc3ccc(Br)nn3)[C@@H]2C1` [Example 1-19, [(3aS,4R,6aR)-4-[(6-Bromo-3-pyridazinyl)oxy]hexahydrocyclopenta[c]pyrrol-2(1H)-yl][5-(2-fluoroethoxy)-2-thienyl]methanone], the IC50 at human ABHD6 is 10 nM; in assay [1], under 1 nM.

Take `Cc1ccc(C(=O)N2C[C@@H]3CC[C@@H](Oc4ccc(Br)nn4)[C@@H]3C2)s1` [Example 1-1, [(3aS,4R,6aR)-4-[(6-Bromo-3-pyridazinyl)oxy]hexahydrocyclopenta[c]pyrrol-2(1H)-yl](5-methyl-2-thienyl)methanone]: the IC50 on human ABHD6 turned out to be 11 nM; in assay [1], 1 nM.

As to `COC(=O)N1CCc2sc(C(=O)N3C[C@@H]4CC[C@@H](Oc5ccc(Br)nn5)[C@@H]4C3)cc2C1` [Example 1-13], the 50% inhibitory concentration (IC50) at human ABHD6 is 5 nM; in assay [1], under 1 nM.

On to `O=C(c1cc2c(s1)CCOC2)N1C[C@@H]2CC3(CC3)[C@@H](Oc3ccc(Br)nn3)[C@@H]2C1` [Example 4, [(3aS,4S,6aR)-4-[(6-Bromo-3-pyridazinyl)oxy]tetrahydro-1H-spiro[cyclopenta[c]pyrrole-5,1′-cyclopropan]-2(3H)-yl](6,7-dihydro-4H-thieno[3,2-c]pyran-2-yl)methanone], for which the IC50 on human ABHD6 was 1 nM; in assay [1], under 1 nM.

Turning to `O=C(c1ccc(C(F)F)s1)N1C[C@@H]2CC[C@@H](Oc3ccc(Br)nn3)[C@@H]2C1` [Example 1-7, [(3aS,4R,6aR)-4-[(6-Bromo-3-pyridazinyl)oxy]hexahydrocyclopenta[c]pyrrol-2(1H)-yl][5-(difluoromethyl)-2-thienyl]methanone], the IC50 was 20 nM at human ABHD6 and under 1 nM in assay [1].

A word on the IC50: it is the midpoint of a concentration-inhibition curve.
